assay: Human HepG2 cell viability assay in 384 well format; format: toxicity, cell-based; parameters: dose 125 nL, time 70.5 hour; concentration not given beside the values; conditions: HepG2 cells, read-out: Inhibition

Structure (SMILES) | cytotoxicity at 70.5 h
Cc1cc(-c2nccs2)nc(C2CCN(Cc3ccncc3)CC2)n1 | -0.926%
CNC(=O)c1cccc(CNC(=O)C2CC(=O)N(CCN(C)C)C2)c1 (centres undefined) | -5.17%
Cc1cc(C(=O)N2C[C@@H]3COC[C@]3(CN(C)C)C2)c(C)o1 | -17.3%
CNC(=O)[C@@H]1[C@@H](c2ccccc2)CN2CCN(Cc3ccccn3)C[C@H]12 | -7.27%
CCc1nc(CS(=O)(=O)Cc2noc(C3CC3)n2)cs1 | -1.78%
Cc1ccc(Br)c(S(=O)(=O)NCc2cnn(C)c2)c1 | -5.3%
CN1C[C@@H](C(=O)NC2CCCC2)[C@@]2(COc3ccc(F)cc3C2=O)C1 | -6.62%
CCc1noc(CC)c1CNC(=O)Nc1ccc2[nH]nnc2c1 | -4.16%
COc1ccccc1-n1nc(-c2ccco2)n(CC(=O)NC2CC2)c1=O | 10.2%
CC(C)(C)c1ccn(C2(C(=O)O)CCN(c3ccnc(N)n3)CC2)n1 | -3.43%
FC(F)CNc1cnc(C2CCCN2)cn1 (centres undefined) | 3.12%
Cc1cc(C(=O)NC2(C#N)CCCC2)c(C)n1-c1cccnc1 | -6.05%
CC(C)c1nnc2ccc(N3CCC(C(=O)O)CC3)nn12 | -25.9%
Cc1cc(C)n(CCN(C)Cc2c[nH]nc2-c2ccc3c(c2)OCO3)n1 | -5.98%
CCCc1nnnn1Cc1cn2c(C)cccc2n1 | -2.3%
COCCN1C[C@@H]2CN(Cc3cccc(F)c3)CCC[C@]2(C(=O)O)C1 | 20.7%
CCC(=O)N1CCN(C(=O)NC2CCc3ccccc3C2)CC1 (centres undefined) | -4.1%
Nc1nc(CCCNC(=O)C2CCCN(Cc3ccco3)C2)cs1 (centres undefined) | 8.32%
O=C(NCC(O)c1ccc(F)c(F)c1)c1ccccc1F (centres undefined) | -9.96%
CNc1cc(-c2ccccc2CN)c2cc[nH]c2n1 | 3.36%
COc1cccc(CNC(=O)c2cccnc2N)c1 | 6.88%
CN(Cc1ccccc1F)C(=O)CS(=O)(=O)Cc1ccc(Cl)c(Cl)c1 | -19%
O=C(NC[C@@H]1CCCO1)c1ccc(S(=O)(=O)N[C@@H]2CCNC2)cc1 | 6%
Cc1cc(N2Cc3cnn(CCO)c3C2)nc(-c2ccccc2O)n1 | -4.43%
Cc1c(C(=O)NC2CCCOC2)nnn1-c1ccc(Cl)cc1F (centres undefined) | -0.806%
CC(C)(CN1CCC(Cc2ccc(CO)cc2)C1)N1CCOCC1 (centres undefined) | -10.6%
CCC(O)CN1CCN(C(=O)Cc2c(C)nc(C)[nH]c2=O)CC1 (centres undefined) | 3.13%

Structure (SMILES) | cytotoxicity at 70.5 h
O=C(NCCNc1ncccn1)c1scnc1Cl | 9.91%
O=C(CSc1nnc(N2CCCC2)s1)NC(=O)Nc1ccccc1 | -5.54%
COc1ccnc(CN2CCCC(CCc3ccc(F)cc3)C2)c1OC (centres undefined) | 2.04%
COC(=O)c1ccc(C2SCC(=O)Nc3c2cnn3C2CCCC2)cc1 (centres undefined) | -12.4%
O=C(c1ccco1)N1CCO[C@@H]2CN(CC3CC3)CC[C@@H]2C1 | 28%
Cc1ccc(CN2CC(O)CN(C(=O)C3CC3)CC2=O)cc1 (centres undefined) | -5.26%
COC(=O)c1ccc(N2CCN(C(=O)c3cnc(C)cn3)C(C)C2)cc1 (centres undefined) | -11%
CC(Cn1ccnc1)NCc1ccc2nonc2c1 (centres undefined) | -2.31%
CCC(CN1CCCCC1)NC(=O)C1(c2ccc(F)cc2)CC1 (centres undefined) | -7.64%
COCCCN1CC2(CCN(C(=O)c3ncc(F)cc3F)CC2)CC1=O | -9.33%
Cc1cc(=O)[nH]c(-n2nc(-c3cccs3)cc2N)n1 | 13.9%
CCN(C)S(=O)(=O)c1ccc(Cl)cc1C#N | -7.9%
Cc1ccc(SCCCNC(=O)c2cn([C@H]3CC[C@@H](N)CC3)nn2)cc1 | 20.6%
CC(C)OCCOCc1cccc(NC(=O)NCc2ccccn2)c1 | -8.39%
CCCn1ncc(C2CC(=O)NCc3nc4sc(C)cn4c32)c1C (centres undefined) | -3.1%
Cc1ccsc1C(O)CNC(=O)Cc1ccc(S(=O)(=O)C(C)C)cc1 (centres undefined) | -13.3%
CC(=O)NC1(C(=O)N2CCCN(c3cccnn3)CC2)CCCCC1 | -5.29%
CNC(=O)[C@@H]1[C@@H](OC(=O)Nc2ccccc2)C(=O)N(C)C12CCNCC2 | -2.76%
CN(C)C(=O)[C@H]1CC[C@@H]2[C@@H](CCN2C(=O)N(C)C)O1 | 1.41%
Cc1noc(C)c1CN1CC[C@H]2C[C@H](c3nccs3)O[C@@H]2C1 | -9.22%
CC(NC(=O)NCCNc1ncccn1)c1cccs1 (centres undefined) | 1.09%
CCOc1ccc(C2C3=C(O)OCC3=Nc3nc(SC)nc(N)c32)cc1 (centres undefined) | 9.83%
CCCc1cc(C(=O)Nc2nc(SC)ns2)n(C)n1 | -13.2%
Cc1noc([C@@H]2C[C@H]3CN(Cc4ccc5c(c4)OCO5)C[C@H]3O2)n1 | -16.8%
O=C(COCC1CC[C@H]2[C@H](CCN2c2ncccn2)O1)N1CCCC1 (some centres undefined) | -6%
Cc1ccc(NS(=O)(=O)c2cnn(-c3ccccc3)c2)c(C(=O)O)c1 | -5.8%
CN(Cc1nnc(-c2cccs2)o1)C(C(N)=O)c1cccc(F)c1 (centres undefined) | -22%

Structure (SMILES) | cytotoxicity at 70.5 h
CC(C)Nc1nc(O)cc(C2CC(=O)N(C3CCCCC3)C2)n1 (centres undefined) | -3.62%
CN(C)c1ncnc2c1CCN(S(=O)(=O)c1ccccc1C(F)(F)F)C2 | 1.88%
NS(=O)(=O)CCNC(=O)C1(c2ccccc2)CC1 | -1.21%
CCN1CCCC1CNC(=O)CCc1cccs1 (centres undefined) | -3.71%
COCC(=O)N1C[C@@H](c2cccc(F)c2)[C@H]2[C@H]1CCCCCN2C(C)=O | 7.2%
COCCN1C[C@H]2CN(C(=O)NC(C)C)CCN2C1=O | -3.98%
CCc1c(C)nc2n(c1=O)CC(C(=O)Nc1ccccc1C)CS2 (centres undefined) | 4.11%
O=C(CCn1nc(C(=O)Nc2ccccc2)ccc1=O)Nc1nccs1 | 1.25%
Cc1ccc(CC(=O)N2CCN(CC(C)O)CC2)cn1 (centres undefined) | -5.27%
CCN(CC1CN(Cc2ccccn2)CCO1)c1cccnn1 (centres undefined) | -9.99%
CC(Nc1ccc(CN2CCCC2=O)cc1)c1ccc(C#N)cc1 (centres undefined) | -5.25%
CN1CCN([C@@H]2CN(C(=O)c3cc4cccc(F)c4[nH]3)C[C@H]2O)CC1 | -1.94%
CN(C)CCN1CCCC12CCCN(Cc1ccco1)C2 (centres undefined) | 7.41%
CCCc1nnc2sc(C3CCN(CC)CC3)nn12 | -13.4%
Cc1cc(C)c2cc(CNC3CCCCC3)c3nn(C)c(=O)n3c2c1 | 5.59%
CC(Nc1cccc(CN2CCOC2=O)c1)C(=O)Nc1cccc(F)c1 (centres undefined) | -0.899%
O=C(CN1CCOc2ccc(Cl)cc21)NCCCn1ccnc1 | -5.4%
Cc1nc(C2CCCN2Cc2nc(C3CC3)no2)no1 (centres undefined) | -2.5%
CCC(=O)N1CCCC1c1csc(Nc2cnccn2)n1 (centres undefined) | -9.64%
Cc1cc(CN2CC[C@H]3C[C@H](c4nccs4)O[C@@H]3C2)no1 | -15.6%
Cc1cccc(NC(=O)[C@@H]2CCCN2Cc2ccccc2C#N)n1 | -10.3%
CC(C)(C)NC(=O)CN1CCCN(Cc2ccc(C#N)cc2)CC1 | -6.11%
O=C(NCC(O)c1ccc(F)cc1F)c1cccc(F)c1 (centres undefined) | -2.46%
COc1ccc(CN2CCc3c(nc(-c4ccccn4)[nH]c3=O)C2)cc1 | 13.1%
CN(Cc1cccnc1)Cc1cn2c(n1)CN(C1CCOC1)CC2 (centres undefined) | -6.14%

— ChEMBL document CHEMBL3507680, “University of Dundee, Gates Library screen for HepG2 cell viability”
